Measured values reported in patent US8338422B2, “Indolin-2-ones and aza-indolin-2-ones” (Janssen Pharmaceutica NV, priority 2007, dated 2012).

Experiments:
PLK4 (h) = PLK4 (h) (Homo sapiens, UniProt O00444); assay: PLK-4 human kinase assay (SPA); format: biochemical; conditions: for IC50: read-out: PLK4 pIC50 (converted)
Protocol: (§1) The in vitro inhibition of a panel of kinases was assessed using either the scintillation proximity assay (SPA) as described by Cook, N. D. et al., Advances in Experimental Medicine and Biology (1991), 36; p. 525-528; or the Fluorescence Resonance Energy Transfer (FRET) technology as described by Rodems, S. M. et al., Assay Drug Develop. Technol. (2002), 1; p. 9-19.
(§2) In the SPA technology the activity of the kinase of interest is measured using an appropriate biotinylated substrate that is incubated with the aforementioned kinase protein in the presence of (^33P) radiolabeled ATP. (^33P) Phosporylation of the substrate is subsequently measured through binding of the phosphorylated substrate to streptavidine coated beads that are based on the scintillant poly(vinyl toluene) (PVT-Beads). The scintillation intensity is detected by imaging on Leadseeker.
(§3) All kinases are pre-diluted to a 10× working concentration prior to addition into the assay. The composition of the dilution buffer for each kinase is detailed below.
In a final reaction volume of 30 μl PLK4 (h) (19 μg/ml) is incubated with 50 mM Hepes pH 8.0, 10 mM MgCl2, 50 mM NaCl, 1 mM NaF, 1 mM DTT, 10 μM of peptide Biotin-RPRGQRDSSYYWE-OH, 1 μM ATP and 2 nM [γ-^33P-ATP] (6.0 μCi/ml). After incubation of 60 minutes at room temperature, the reaction is stopped by addition of 40 μl, of stop solution containing 8.7 mM EDTA, BSA 0.17%, 0.17% Triton X-100, 1.7 mg/ml SPA beads (GE-healthcare). The plate is centriguged and read for Scintillation imaging on Leadseeker.

PC-3 = assay: Cellular proliferation assay (Alamar blue), PC-3; format: cell-based; conditions: PC-3 cells, 72 hours with compound, 10% FCS
Protocol: (§4) […] functional properties of these compounds was tested in cellular proliferation assays on a panel of different cell lines in the presence of 10% FCS serum (37° C. and 5% (v/v) CO2). In a first step these cells were seeded and incubated for 24 hours in the absence of compound. In the second step the cells were incubated for 72 hours with the compounds to be tested for 72 hours. The viable cell number was finally assessed in a standard Alamar blue cell viability assay.
(§5) The viable cell number was assessed by incubation for either 4 h (HCT-116, H1299, H460) 6 h (SKOV3, HT29, U87-MG, Colo205) or 24 h (A2780, PC3, MDA-MB-231, A549, MCF-7) with Alamar blue (Resazurin 9 μg/ml, K-Ferrocyanide 90 μM K-Ferricyanide 90 μM) and the converted fluorescent product was quantified on a fluorescent plate readed (544 nm/590 nm). Effect of the compounds is calculated as of on control cells.

AuroraB (h) = AuroraB (h) (Homo sapiens, UniProt Q96GD4); assay: Aurora-B human kinase assay (SPA); format: biochemical; conditions: for IC50: read-out: AuroraB pIC50 (converted)
Protocol: as §1, §2, §3
In a final reaction volume of 30 μl, AuroraB (h) (0.5 μg/ml) is incubated with 60 mM Hepes pH 7.5, 3 mM MgCl2, 3 mM MnCl2, 3 μM Na3VO4, 0.05 mg/ml PEG, 2 mM DTT, 3 μM Biotin-[…]-OH, 0.5 μM ATP and 2.2 nM [γ-^33P-ATP] (6.8 μCi/ml). After incubation of 60 minutes at room temperature, the reaction is stopped by addition of 40 μL of stop solution containing 8.7 mM EDTA, BSA 0.17%, 0.17% Triton X-100, 5 mg/ml SPA beads (GE-healthcare). The plate is centriguged and read for Scintillation imaging on Leadseeker.

A2780 = assay: Cellular proliferation assay (Alamar blue), A2780; format: cell-based; conditions: A2780 cells, 72 hours with compound, 10% FCS
Protocol: as §4, §5

CDK1/CyclinB (h) = CDK1/CyclinB (h) (Homo sapiens, UniProt P06493); assay: CDK1/CyclinB human kinase assay (FRET); format: biochemical; conditions: for IC50: read-out: CDK1 pIC50 (converted)
Protocol: as §1
In the FRET technology the activity of the kinase of interest is measured using an appropriate substrate that is labeled with two fluorophores (coumarin and fluorescein). Phosphorylation is determined using a developing reagent comprising a protease that recognizes and cleaves nonphosphorylated peptides. Cleavage will disturb the FRET between the fluorescein and coumarin on the peptide. Uncleaved, phosphorylated peptides maintain the FRET signal. A ratiometric readout of the donor emission over the acceptor emission quantitates the reaction process.
as §3
In a final reaction volume of 10 μl, CDK1/CyclinB (h) (0.2 μg/ml) is incubated with 50 mM Hepes pH 7.5, 10 mM MgCl2, 1 mM EGTA, 0.01% Brij-35, 2 μM Z'lyte Ser/Thr peptide 12 and 10 μM ATP (Invitrogen's FRET assay). After incubation of 60 minutes at room temperature, the reaction is stopped by addition of 5 μL development reagent containing protease mix. After 60 minutes room temperature the development reaction is stopped by adding 5 μl stop solution. The plate is then read in fluorescence plate reader with excitation: 390 nm and dual emission: 460 and 538 nm. Emission ratio is determined to the formula=Emission signal intensity at 460 nm/Emission signal intensity at 538 nm.

GSK3β (h) = GSK3β (h) (Homo sapiens, UniProt P49841); assay: GSK-3β human kinase assay (SPA); format: biochemical; conditions: for IC50: read-out: GSK3B pIC50 (converted)
Protocol: as §1, §2, §3
In a final reaction volume of 30 μl, GSK3β (h) (1 μg/ml) is incubated with 25 mM Tris pH 7.4, 10 mM MgCl2, 1 mM DTT, 1 μM peptide Biotin-KRREILSRRPSYR-OH, 1 μM ATP and 2 nM [γ-^33P-ATP] (6.0 μCi/ml). After incubation of 60 minutes at room temperature, the reaction is stopped by addition of […] of stop solution containing 8.7 mM EDTA, BSA 0.17%, 0.17% Triton X-100, 6.25 mg/ml SPA beads (GE-healthcare). The plate is centriguged and read for Scintillation imaging on Leadseeker.

H1299 = assay: Cellular proliferation assay (Alamar blue), H1299; format: cell-based; conditions: H1299 cells, 72 hours with compound, 10% FCS
Protocol: as §4, §5

U87MG = assay: Cellular proliferation assay (Alamar blue), U87MG; format: cell-based; conditions: U87MG cells, 72 hours with compound, 10% FCS
Protocol: as §4, §5

HCT-116 = assay: Cellular proliferation assay (Alamar blue), HCT-116; format: cell-based; conditions: HCT-116 cells, 72 hours with compound, 10% FCS
Protocol: as §4, §5

CDK1/CyclinB (h), sequence (P06493 whole entry): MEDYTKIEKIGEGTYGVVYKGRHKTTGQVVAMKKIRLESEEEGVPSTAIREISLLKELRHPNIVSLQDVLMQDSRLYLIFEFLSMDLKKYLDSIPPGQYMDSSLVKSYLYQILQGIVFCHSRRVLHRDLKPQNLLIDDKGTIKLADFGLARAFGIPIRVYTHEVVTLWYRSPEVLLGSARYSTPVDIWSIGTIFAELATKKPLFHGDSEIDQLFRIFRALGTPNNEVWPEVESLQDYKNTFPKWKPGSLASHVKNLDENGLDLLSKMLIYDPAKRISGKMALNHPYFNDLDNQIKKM
CDK1/CyclinB (h), sequence (P14635 whole entry partner): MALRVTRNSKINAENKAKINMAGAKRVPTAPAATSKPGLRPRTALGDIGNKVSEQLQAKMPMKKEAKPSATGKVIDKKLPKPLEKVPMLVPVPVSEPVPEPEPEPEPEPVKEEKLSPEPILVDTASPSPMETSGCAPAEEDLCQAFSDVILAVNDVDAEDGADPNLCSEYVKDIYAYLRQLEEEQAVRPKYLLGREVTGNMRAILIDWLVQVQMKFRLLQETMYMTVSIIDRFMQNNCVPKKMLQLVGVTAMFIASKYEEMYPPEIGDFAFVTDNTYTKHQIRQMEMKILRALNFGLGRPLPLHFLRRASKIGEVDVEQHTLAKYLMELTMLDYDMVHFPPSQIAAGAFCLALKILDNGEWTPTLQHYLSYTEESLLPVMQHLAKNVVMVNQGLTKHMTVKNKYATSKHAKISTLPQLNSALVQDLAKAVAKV
GSK3β (h), sequence (P49841 whole entry): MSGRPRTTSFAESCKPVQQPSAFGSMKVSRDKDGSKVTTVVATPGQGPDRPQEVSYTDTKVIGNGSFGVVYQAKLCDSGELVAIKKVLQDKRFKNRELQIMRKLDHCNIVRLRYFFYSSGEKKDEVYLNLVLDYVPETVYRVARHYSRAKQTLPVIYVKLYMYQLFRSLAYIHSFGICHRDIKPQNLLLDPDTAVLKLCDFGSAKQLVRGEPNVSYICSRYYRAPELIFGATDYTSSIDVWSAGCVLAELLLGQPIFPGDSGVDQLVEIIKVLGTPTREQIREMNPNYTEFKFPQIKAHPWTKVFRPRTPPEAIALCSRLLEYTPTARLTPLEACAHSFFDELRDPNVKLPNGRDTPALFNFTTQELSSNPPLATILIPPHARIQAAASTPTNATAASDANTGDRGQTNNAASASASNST
PLK4 (h), sequence (O00444 whole entry): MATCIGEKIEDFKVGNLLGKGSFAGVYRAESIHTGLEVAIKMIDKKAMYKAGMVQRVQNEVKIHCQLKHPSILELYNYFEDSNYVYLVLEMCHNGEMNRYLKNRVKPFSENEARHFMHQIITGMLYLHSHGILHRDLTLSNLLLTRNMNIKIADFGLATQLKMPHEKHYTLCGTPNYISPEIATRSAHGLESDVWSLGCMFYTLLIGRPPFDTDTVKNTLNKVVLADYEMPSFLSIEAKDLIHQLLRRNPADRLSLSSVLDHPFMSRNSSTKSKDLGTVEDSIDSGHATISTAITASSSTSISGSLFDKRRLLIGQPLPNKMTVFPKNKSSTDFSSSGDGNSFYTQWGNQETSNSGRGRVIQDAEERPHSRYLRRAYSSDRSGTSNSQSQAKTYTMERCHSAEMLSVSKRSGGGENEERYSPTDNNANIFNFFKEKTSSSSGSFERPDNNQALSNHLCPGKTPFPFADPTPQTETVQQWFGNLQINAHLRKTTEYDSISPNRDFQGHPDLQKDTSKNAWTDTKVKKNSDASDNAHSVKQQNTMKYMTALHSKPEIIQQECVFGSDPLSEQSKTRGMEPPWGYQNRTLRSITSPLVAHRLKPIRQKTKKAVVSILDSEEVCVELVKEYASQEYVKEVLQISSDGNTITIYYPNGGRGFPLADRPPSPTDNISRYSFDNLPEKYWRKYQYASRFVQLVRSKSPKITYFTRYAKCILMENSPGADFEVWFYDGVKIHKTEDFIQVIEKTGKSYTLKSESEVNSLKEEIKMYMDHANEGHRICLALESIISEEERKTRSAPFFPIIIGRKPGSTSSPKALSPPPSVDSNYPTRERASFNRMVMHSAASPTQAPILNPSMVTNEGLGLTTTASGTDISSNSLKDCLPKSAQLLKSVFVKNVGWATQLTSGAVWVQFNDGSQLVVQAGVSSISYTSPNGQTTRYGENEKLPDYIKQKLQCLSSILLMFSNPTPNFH
AuroraB (h), sequence (Q96GD4 whole entry): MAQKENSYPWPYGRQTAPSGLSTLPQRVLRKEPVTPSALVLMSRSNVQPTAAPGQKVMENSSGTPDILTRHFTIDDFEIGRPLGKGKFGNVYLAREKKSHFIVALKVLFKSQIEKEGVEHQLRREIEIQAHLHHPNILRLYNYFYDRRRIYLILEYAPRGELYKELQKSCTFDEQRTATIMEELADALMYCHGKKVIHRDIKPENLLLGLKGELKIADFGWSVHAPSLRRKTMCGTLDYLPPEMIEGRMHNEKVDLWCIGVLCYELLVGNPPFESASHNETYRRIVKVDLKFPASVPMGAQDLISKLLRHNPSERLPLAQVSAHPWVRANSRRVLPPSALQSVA

IC50 (PLK4 (h)) [µM]	IC50 (AuroraB (h)) [µM]	IC50 (CDK1/CyclinB (h)) [µM]	IC50 (GSK3β (h)) [µM]	SMILES	PLK4 pIC50 (PLK4 (h))	AuroraB pIC50 (AuroraB (h))	CDK1 pIC50 (CDK1/CyclinB (h))	GSK3B pIC50 (GSK3β (h))	other results
				COc1ccc2cc1OCCCC(=O)NCCCNc1ncnc3c1C(=CN2)C(=O)N3 (mixture of isomers) [Compound 146]	7.34	7.24	7.21	7.56	pIC50 PC-3 (PC-3): 6.22; pIC50 A2780 (A2780): 5.83; pIC50 H1299 (H1299): 6.41; pIC50 U87MG (U87MG): 5.80; pIC50 HCT-116 (HCT-116): 6.15
0.525	> 10	1.55	0.0513	CN1CCN(c2ccc3cc2CN(C)CCCC(=O)N(C)CCCNc2ncnc4c2/C(=C/N3)C(=O)N4)CC1 [Compound 140]					IC50 (PC-3; Homo sapiens, PC-3, 72 h, read-out: pIC50 PC-3 (converted)): 6.17 µM; IC50 (A2780; Homo sapiens, A2780, 72 h, read-out: pIC50 A2780 (converted)): 1.23 µM; IC50 (H1299; Homo sapiens, NCI-H1299, 72 h, read-out: pIC50 H1299 (converted)): 2.63 µM; IC50 (U87MG; Homo sapiens, U-87 MG, 72 h, read-out: pIC50 U87MG (converted)): 0.501 µM
> 10	> 10	> 10	> 10	CN1CCNc2ncnc3c2/C(=C/Nc2ccc(N4CCOCC4)c(c2)OCCCC1=O)C(=O)N3 [Compound 8]					
1.66	> 10	> 10	2.19	CN1CCCCCCC(=O)N(C)CCNc2ncnc3c2/C(=C/Nc2cccc(c2)C1)C(=O)N3 [Compound 83]					
				COc1ccc2cc1OCCCCCCC(=O)N(C)CCNc1ncnc3c1C(=CN2)C(=O)N3 (mixture of isomers) [Compound 76]	5.72	6.28	<5	6.54	
5.5	> 10	> 10	0.617	CN1CCCC(=O)N(C)CCCN(C)c2ncnc3c2/C(=C/Nc2ccc(Cl)c(c2)C1)C(=O)N3 [Compound 90]					
				CN1CCCNc2ncnc3c2C(=CNc2cccc(c2)OCCCCC1=O)C(=O)N3 (mixture of isomers) [Compound 70]	6.75	6.8	5.61	7.28	
2.69	> 10	1.15	3.16	COc1cc2cc(c1OC)CN(C)CCCCC(=O)N(C)CCCNc1ncnc3c1/C(=C/N2)C(=O)N3 [Compound 95]					
> 10	> 10	> 10	0.776	N#Cc1ccc2cc1OCCCC(=O)N1CCN(CC1)c1ncnc3c1/C(=C/N2)C(=O)N3 [Compound 98]					
